The numbers were not newly measured in patent US10583101B2 (EMCURE PHARMACEUTICALS LIMITED, priority 2016, dated 2020), which cites them from elsewhere.

Regarding `O=NN(CCCl)C(=O)NCCCl` [Carmustine, 1,3-bis (2-chloroethyl)-1-nitrosourea], the “solubility in alcohol and lipids” value (alcohol and lipids) was “highly soluble in alcohol and lipids”. The solubility in water result (water) is “poorly soluble in water”.
